Test results taken from patent EP0793496B1, “USE OF HALOGENATED beta-[…] MODEL […] PRODUCE NEURODEGENERATIVE DISORDERS” (priority 1994, dated 1996).

How the values were obtained:
[1] = test system: Dopaminstoffwechsel im Striatum; assay: In vivo differential pulse voltammetry of the DOPAC signal in the striatum after unilateral intranigral injection; set-up: species or system Ratte; details: for DOPAC-Signal im ipsilateralen Striatum: 10 µg in 2 µl intranigral, before L-DOPA
Text: Die 1-Trichlormethyl-β-carboline TaClo und N-Me-TaClo wurden im Vergleich zu den bekannten Neurotoxinen MPTP und MPP^+, wie folgt, auf ihre neurotoxische Wirkung überprüft. Die zu untersuchenden Substanzen (TaClo, N-Me-TaClo, DDH-TaFlu, TaBro, MPTP und MPP^+) wurden unter Narkose mit einer Mikroglaskapillare stereotaktisch nach Koordinaten (A: 4,0 mm; L: 1,9 mm; V: 2,0 mm; ab Interaurallinie) von Paxinos und Watson (1982) unilateral in die rechte Substantia nigra pars compacta der Ratte (Han-Wistar, Zentralinstitut für Versuchstierzucht, Hannover, 250-300 g) injiziert. Appliziert wurde ein Volumen von 2 µl über einen Zeitraum von 15 Minuten.
Im Striatum, dem Projektionsareal der nigralen dopaminergen Neurone, wurde 1 und/oder 3 Wochen nach Applikation der Substanzen der Transmitterstoffwechsel untersucht. Die Untersuchung des Dopaminstoffwechsels wurde dabei in beiden Striata, dem linken Striatum, Projektionsgebiet der unbehandelten linken Substantia nigra, und dem rechten Striatum, Projektionsgebiet der behandelten rechten Substantia nigra, durchgeführt. Die Messung des Dopaminstoffwechsels erfolgte mit Hilfe der in vivo differentiellen Pulsvoltametrie (DPV) mit Mikrokohlefaserelektroden, wie sie 1980 von Gonon beschrieben wurde (Gonon et al., 1980). Dabei werden die extrazellulären Spiegel an 3,4-Dihydroxyphenylessigsäure (DOPAC) erfaßt, einem Metaboliten des Transmitters Dopamin. Die Messung wurde am narkotisierten Tier durchgeführt. Die stereotaktische Implantation von 2 Elektroden (rechtes und linkes Striatum) erfolgte nach Koordinaten (A: 8,5 mm; L: ± 3,5 mm; V: 4,5 mm; ab Interaurallinie) von Paxinos und Watson (Paxinos und Watson, 1982). Die voltametrischen Messungen wurden im Abstand von 8 Minuten durchgeführt. 40 Minuten nach Beginn der Messungen applizierte man den Tieren L-DOPA (100 mg/kg i.p.), um die Restitutionsfähigkeit des Dopaminstoffwechsels durch dieses Anti-Parkinsonmittel zu überprüfen.

[2] = test system: Substantia nigra pars compacta; assay: Histology of the substantia nigra pars compacta after unilateral intranigral injection (neuron count, tyrosine hydroxylase staining); assay type: in vivo, Ratte
Text: Die ersten Untersuchungen von drei mit TaClo behandelten Ratten mit quantitativer Auswertung der Substantia nigra pars compacta zeigen, daß TaClo, in einer Konzentration von 0.03 µmol einseitig in die Substantia nigra injiziert, bereits nach einer Woche zu einer eindeutigen Reduktion der Neuronenzahl von 12% auf der läsionierten Seite führt. 6-OHDA, in einer annähernd doppelt so hohen Konzentration von 0.05 µmol injiziert, bewirkt einen 51% Abfall der Neuronenzahl.
Nach Anfärbung der Tyrosinhydroxylase mittels Antikörpern zur Darstellung dopaminerger Neurone zeichnen sich pathologische Veränderungen ab, die nach Behandlung mit TaClo auf der läsionierten Seite zu 3 - 6% nekrotischem Gewebsanteil am Gesamtvolumen führen. Bei 6-OHDA beträgt dieser Anteil 25%.

[3] = test system: dopaminerge Rezeptoren; assay: Apomorphine test (Ungerstedt): locomotor activity after subchronic TaClo i.p.; assay type: in vivo, Ratte; details: TaClo (Hydrochlorid) 0.2 mg/kg i.p. for four weeks, then apomorphine s.c.
Method: Eine durch Neurotoxine verursachte Denervation des postsynaptischen Rezeptors im dopaminergen System führt zu einer Rezeptorüberempfindlichkeit. Dadurch wird die Reaktion gegenüber verabreichten DA-Agonisten (z.B. Apomorphin) größer. Zur Überprüfung einer z.B. TaClo-bedingten Überempfindlichkeit dopaminerger Rezeptoren wird der Apomorphin-Test nach Ungerstedt (Ungerstedt et al., 1971) benutzt. Dieser läßt nach s.c. Injektion von 0.4 oder 2 mg/kg Apomorphin bei einseitiger Läsion des dopaminergen Systems im Versuchstier in den für die Entstehung des Morbus Parkinson ausschlaggebenden Basalganglien contralaterale Drehungen erkennen und nach mehr oder weniger beidseitiger Schädigung dopaminerger Strukturen bei geringem Schädigungsgrad vermehrte, bei hohem Schädigungsgrad verminderte Lokomotion im Vergleich zum Kontrollkollektiv sichtbar werden.
Die Verhaltensbeobachtungen fanden während und nach einstündiger Adaption in Beobachtungskäfigen statt. Die Aufzeichnung einzelner spezifischer Parameter wie gelaufene Wegstrecke [DT], Zeit ambulatorischer Bewegungen [AT], Anzahl stereotyper Bewegungen [BMS] und Zeiten stereotyper Bewegungen erfolgte automatisch. […]

[4] = test system: Tyrosinhydroxylase-immunoreaktive Neuronen (TH-IR); assay: Primary neuron cell culture: number and morphology of TH-IR neurons after 24 h; assay type: cell-based; details: for Zahl der TH-IR Zellen/ Kulturschale: added on culture day 9, mean ± S.D.
Text: (§1) In der Zellkultur zeigen 1-Trichlormethyl-β-carboline neurotoxische Eigenschaften, die mit denen von MPP^+ bzw. MPTP, den bisher bestuntersuchten dopaminergen Neurotoxinen, vergleichbar sind. Das neurotoxische Potential der chlorierten β-Carboline wurde daher mit Methoden untersucht, die sich beim Studium der Wirkung von MPTP und seiner Analoga bewährt haben (Koutsilieri et al., 1993; Michel et al., 1990; Sanchez-Ramos et al., 1988) Deutliche degenerative Veränderungen sind in vitro im Akutversuch bei einer Einwirkungszeit von 24 Stunden ab einer Konzentration von 10 - 100 µM feststellbar. Die Substanzen führen zum Zelltod dopaminerger Primärzellen aus dem Mesencephalon - Zellen, die den bei Morbus Parkinson betroffenen Neuronen des Menschen entsprechen. Dem Zelltod dieser immunhistochemisch eindeutig charakterisierten Neuronen (Antikörper auf Tyrosinhydroxylase) gehen morphologische Veränderungen der Zellen voraus. Dabei nimmt die Gesamt-Zelloberfläche ab, die Dendriten und Axone, (zuerst die sekundären und dann die primären Zellfortsätze) gehen verloren. Diese histologischen Befunde (vgl. auch Tabelle 2) wurden durch bildgebende Verfahren erhärtet und quantifiziert. Die 1-Trichlormethyl-β-carboline zeigen auch toxische Eigenschaften in Gliazellkulturen, wie durch histologische Befunde nachgewiesen werden konnte. Für die Gruppe der 1-Trichlormethyl-β-carboline läßt sich eine Beeinflussung der synaptischen Transmitterkonzentration erwarten, wie an Versuchen mit der Grundstruktur TaClo nachgewiesen werden konnte, deren Zusatz konzentrationsabhängig (IC50 50 µM) zu einer Freisetzung von Dopamin aus den Zellkulturen führt. Dies wurde durch Dopaminbestimmung in den Kulturen mit Hilfe der Hochdruckflüssigkeitschromatographie und elektrochemischer Detektion nachgewiesen. Der Einsatz von ^3H-markiertem Dopamin für Aufnahmestudien weist eine Interaktion der 1-Trichlormethyl-β-carboline mit den Dopaminaufnahmestellen in Zellkulturen nach, die eine wichtige Voraussetzung für die Aufnahme dieser Substanzen in das dopaminerge Neuron und die Entfaltung der neurotoxischen Wirkung darstellen (IC50 für TaClo 100 µM) (vgl. Tabelle 2).

[5] = test system: dopaminerge Primärzellen aus dem Mesencephalon; assay: Dopamine content / dopamine release in the cell cultures (HPLC with electrochemical detection); assay type: cell-based; details: for Dopamingehalt: 24 h, mean ± S.D.
Text: as §1, with “Der Einsatz von ^3H-markiertem Dopamin für Aufnahmestudien weist eine Interaktion der 1-Trichlormethyl-β-carboline mit den Dopaminaufnahmestellen in Zellkulturen nach, die eine wichtige Voraussetzung für die Aufnahme dieser Substanzen in das dopaminerge Neuron und die Entfaltung der neurotoxischen Wirkung darstellen (IC50 für TaClo 100 µM) (vgl. Tabelle 2).” left out

[6] = biological target: Dopaminaufnahmestellen (Mus musculus, UniProt Q61327); assay: 3H-dopamine uptake in cell cultures; assay type: cell-based; details: 24 h, mean ± S.D.
Dopaminaufnahmestellen, sequence (Q61327 whole entry): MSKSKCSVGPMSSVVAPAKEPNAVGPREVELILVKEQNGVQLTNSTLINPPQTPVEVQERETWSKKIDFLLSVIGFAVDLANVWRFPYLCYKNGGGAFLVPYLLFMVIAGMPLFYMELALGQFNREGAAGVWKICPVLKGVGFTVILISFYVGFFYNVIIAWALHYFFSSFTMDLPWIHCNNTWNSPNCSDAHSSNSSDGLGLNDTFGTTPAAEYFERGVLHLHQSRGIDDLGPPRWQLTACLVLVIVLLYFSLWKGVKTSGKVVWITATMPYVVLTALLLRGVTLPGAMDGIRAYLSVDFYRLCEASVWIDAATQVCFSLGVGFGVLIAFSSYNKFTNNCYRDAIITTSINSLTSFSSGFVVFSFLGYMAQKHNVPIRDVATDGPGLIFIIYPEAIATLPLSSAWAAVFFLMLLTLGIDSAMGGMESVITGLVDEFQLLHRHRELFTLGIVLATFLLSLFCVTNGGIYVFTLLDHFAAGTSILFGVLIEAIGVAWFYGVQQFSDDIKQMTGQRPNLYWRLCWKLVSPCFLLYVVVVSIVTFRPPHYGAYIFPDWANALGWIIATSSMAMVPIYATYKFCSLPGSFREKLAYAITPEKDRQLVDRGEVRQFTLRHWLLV
Text: as §1, with “Der Einsatz von ^3H-markiertem Dopamin für Aufnahmestudien weist eine Interaktion der 1-Trichlormethyl-β-carboline mit den Dopaminaufnahmestellen in Zellkulturen nach, die eine wichtige Voraussetzung für die Aufnahme dieser Substanzen in das dopaminerge Neuron und die Entfaltung der neurotoxischen Wirkung darstellen (IC50 für TaClo 100 µM) (vgl. Tabelle 2).” left out

## CN1CCc2c([nH]c3ccccc23)C1C(Cl)(Cl)Cl (centres unmarked) [N-Me-TaClo]
[1]; 1 week
  DOPAC-Signal im ipsilateralen Striatum: signifikant
[1]; 3 weeks
  DOPAC-Signal im ipsilateralen Striatum: signifikant

## FC(F)(F)C1=NCCc2c1[nH]c1ccccc21 [DDH-TaFlu, 1-Trifluormethyl-3,4-didehydro-β-carbolin]
[1]; 1 week
  DOPAC-Signal im ipsilateralen Striatum: stärkere Reduktion des DOPAC-Signals

## CN1CC=C(c2ccccc2)CC1 [MPTP, 1-Methyl-4-phenyl-1,2,3,6-tetrahydropyridin, reference compound]
[1]; MPTP 174 µg in 2 µl intranigral, 1 and 3 weeks, L-DOPA 100 mg/kg i.p.
  Kompensation des Neuronenverlusts durch L-DOPA: kompensieren konnte
[1]; MPTP 174 µg in 2 µl intranigral, 1 week, intact side about 20%, p < 0.05
  DOPAC-Wert auf der läsionierten Seite vor L-DOPA: ~6%
[1]; MPTP 174 µg in 2 µl intranigral, 3 weeks
  Erniedrigung des DOPAC-Signals: statistisch nicht mehr signifikant

## C[n+]1ccc(-c2ccccc2)cc1 [MPP^+, 1-Methyl-4-Phenylpyridinium, reference compound]
[1]; MPP^+ 30 µg in 2 µl intranigral, 1 and 3 weeks
  DOPAC-Signal auf der injizierten Seite: hochsignifikante (p < 0.01) langanhaltende Verringerung des DOPAC-Signals
[1]; MPP^+ 30 µg in 2 µl intranigral, 1 week, L-DOPA 100 mg/kg i.p.
  Restitutionsfähigkeit des dopaminergen Systems durch DOPA: mangelnde Restitutionsfähigkeit

## NCCc1cc(O)c(O)cc1O [6-OHDA, 6-hydroxydopamine, reference compound]
[2]; 0.05 µmol injected
  Abfall der Neuronenzahl: 51%
[2]; 6-OHDA (0.05 µmol), tyrosine hydroxylase antibody staining
  nekrotischer Gewebsanteil am Gesamtvolumen: 25%

## ClC(Cl)(Cl)C1NCCc2c1[nH]c1ccccc21 (racemic) [TaClo]
[3]
  lokomotorische Aktivität nach Apomorphin: stieg nach der kleineren Dosierung signifikant an
[1]; 1 week
  DOPAC-Signal im ipsilateralen Striatum: signifikant geringere DOPAC-Konzentration
[1]; 3 weeks
  DOPAC-Signal im ipsilateralen Striatum: signifikant geringere DOPAC-Konzentration
[2]; 0.03 µmol injected unilaterally into the substantia nigra, after one week, three rats
  Reduktion der Neuronenzahl auf der läsionierten Seite: 12%
[2]; TaClo treatment (0.03 µmol), tyrosine hydroxylase antibody staining
  nekrotischer Gewebsanteil am Gesamtvolumen auf der läsionierten Seite: 3 - 6%
[4]; TaClo 10 µM
  Zahl der TH-IR Zellen/ Kulturschale: 172 ± 69
[4]; TaClo 10 µM, mean ± S.D.
  Länge der Fortsätze: 80 ± 20 µm
  Zahl der primären Fortsätze: 3.1 ± 1.1
  Zahl der sekundären Fortsätze: 2.6 ± 1.6
  Zellfläche: 180 ± 49 µm^2
[4]; TaClo 25 µM
  Zahl der TH-IR Zellen/ Kulturschale: 164 ± 67
[4]; TaClo 25 µM, mean ± S.D.
  Länge der Fortsätze: 70 ± 20 µm
  Zahl der primären Fortsätze: 2.9 ± 1.0
  Zellfläche: 192 ± 47 µm^2
[4]; TaClo 50 µM
  Zahl der TH-IR Zellen/ Kulturschale: 128 ± 47
[4]; TaClo 50 µM, mean ± S.D.
  Länge der Fortsätze: 70 ± 30 µm
  Zahl der primären Fortsätze: 2.6 ± 1.3
  Zellfläche: 159 ± 18 µm^2
[4]; TaClo 100 µM, mean ± S.D.
  Zellfläche: 185 ± 43 µm^2
[5]; TaClo 10 µM
  Dopamingehalt: 0.7 ± 0.2 pmoles/ Kulturschale
[5]; TaClo 25 µM
  Dopamingehalt: 0.6 ± 0.2 pmoles/ Kulturschale
[5]; concentration dependent, dopamine determined by HPLC with electrochemical detection, read-out: IC50 Freisetzung von Dopamin aus den Zellkulturen
  IC50: 50 µM
[6]; TaClo 10 µM
  ^3H-DA uptake: 0.05 ± 0.01 pmoles/ Kulturschale
[6]; TaClo 25 µM
  ^3H-DA uptake: 0.05 ± 0.01 pmoles/ Kulturschale
[6]; TaClo 50 µM
  ^3H-DA uptake: 0.05 ± 0.01 pmoles/ Kulturschale
